# Tests used:
# SOD1 = SOD1 (Homo sapiens, UniProt P00441); format: binding
# Experimental: A computational search was performed in PubChem to identify all compounds containing a cyclic disulfide motif. […] Of these, 69 compounds cross-linked SOD1 with a wide array of reaction rates. Only 2 compounds could cross-link 100% of SOD1 during the assay, including one 5-membered cyclic disulfide (4-Amino-1,2-Dithiolane-4-Carboxylic Acid) and one 6-membered cyclic thiosulfinate (1,2-dithiane 1-oxide).
# transthyretin = conditions: only approved drug with a kinetic stabilizing mechanism; cited from earlier work
# SOD1, sequence (P00441 2-154 limits assumed): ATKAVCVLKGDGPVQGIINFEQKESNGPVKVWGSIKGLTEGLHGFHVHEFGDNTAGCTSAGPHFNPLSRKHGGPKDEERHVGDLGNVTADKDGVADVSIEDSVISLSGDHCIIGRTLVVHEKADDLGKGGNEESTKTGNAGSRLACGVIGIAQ
SOD1 cross-linked during the assay (SOD1),SMILES,increase in thermal stability (transthyretin)
100%,"NC1(C(=O)O)CSSC1 [4-Amino-1,2-Dithiolane-4-Carboxylic Acid]",–
–,O=C(O)c1ccc2nc(-c3cc(Cl)cc(Cl)c3)oc2c1 [tafamidis],6 °C
